In ChEMBL document CHEMBL3400016, “Isolation, synthesis and anti-hepatitis B virus evaluation of p-hydroxyacetophenone derivatives from Artemisia capillaris” (Bioorg Med Chem Lett, 2015):

Tests used:
[1] = Cytotoxicity against human HepG 2.2.15 cells by MTT assay; format: cell-based, HepG2 2.2.15
[2] = Selectivity index, ratio of CC50 for human HepG2.2.15 cells to IC50 for decrease in hepatitis B viral surface antigen HBsAg secretion in human HepG2(2.2.15) cells; format: functional
[3] = tested on: Hepatitis B virus; assay: Antiviral activity against hepatitis B viral in human HepG2.2.15 cells assessed as surface antigen HBsAg secretion after 72 hrs by ELISA; format: functional, organism-based; details: HepG2 2.2.15, 72 h
[4] = tested on: Hepatitis B virus; assay: Antiviral activity against hepatitis B viral in human HepG2.2.15 cells assessed as […] antigen HBeAg secretion after 72 hrs by ELISA; format: functional, organism-based; details: HepG2 2.2.15, 72 h
[5] = tested on: Hepatitis B virus; assay: Antiviral activity against hepatitis B viral in human HepG2.2.15 cells assessed as decrease in viral DNA replication treated for 7 days by real time PCR analysis; format: functional, organism-based; details: HepG2 2.2.15, 168 h
[6] = Selectivity index, ratio of CC50 for human HepG2.2.15 cells to IC50 for decrease in hepatitis B viral DNA replication in human HepG2(2.2.15) cells; format: functional
[7] = Selectivity index, ratio of CC50 for human HepG2.2.15 cells to IC50 for decrease in hepatitis B viral […] antigen HBeAg secretion in human HepG2(2.2.15) cells; format: functional

IC50 [3]	IC50 [4]	IC50 [5]	SMILES	CC50 [1]	Selectivity Index [2]	Selectivity Index [6]	Selectivity Index [7]
2400 µM	> 2870 µM	> 719 µM	CC(=O)c1ccc(OC(=O)/C=C/c2ccccc2)cc1	> 2870 µM	>1.2		
1260 µM	> 2780 µM	> 696 µM	COc1cccc(/C=C/C(=O)Oc2ccc(C(C)=O)cc2)c1	> 2780 µM	>2.2		
> 3280 µM	> 3280 µM	> 820 µM	COc1ccc(/C=C/C(=O)Oc2ccc(C(C)=O)cc2)cc1	> 3280 µM			
1040 µM	> 2620 µM	100 µM	COc1ccc(/C=C/C(=O)Oc2ccc(C(C)=O)cc2)cc1OC	> 2620 µM	>2.5	>26	
1890 µM	> 3040 µM	> 759 µM	CC(=O)c1ccc(OC(=O)/C=C/c2ccc3c(c2)OCO3)cc1	> 3040 µM	>1.6		
286 µM	> 2420 µM	115 µM	COc1cc(/C=C/C(=O)Oc2ccc(C(C)=O)cc2)cc(OC)c1OC	> 2420 µM	>8.5	>21.1	
1520 µM	2210 µM	> 777 µM	CC(=O)c1ccc(OC(=O)/C=C/c2cccc(F)c2)cc1	> 3110 µM	>2		>1.4
1510 µM	1520 µM	> 828 µM	CC(=O)c1ccc(OC(=O)/C=C/c2ccc(F)cc2)cc1	> 3310 µM	>2.2		>2.2
610 µM	1710 µM	> 649 µM	CC(=O)c1ccc(OC(=O)/C=C/c2ccc(F)c(F)c2)cc1	> 2600 µM	>4.3		>1.5
2160 µM	> 3350 µM	837 µM	CC(=O)c1ccc(OC(=O)c2ccccc2)cc1	> 3350 µM	>1.5		
546 µM	> 3300 µM	154 µM	CC(=O)c1ccc(OC(=O)c2cccnc2)cc1	3010 µM	5.5	19.5	
1830 µM	> 4050 µM	> 1010 µM	CC(=O)c1ccc(OC(=O)c2ccco2)cc1	> 4050 µM	>2.2		
499 µM	> 1520 µM	16.8 µM	COc1cccc(/C=C/C(=O)OC[C@H]2O[C@@H](Oc3ccc(C(C)=O)cc3)[C@H](O)[C@@H](O)[C@@H]2O)c1	> 1520 µM	>3	>90.5	
782 µM	> 2080 µM	18.5 µM	COc1ccc(/C=C/C(=O)OC[C@H]2O[C@@H](Oc3ccc(C(C)=O)cc3)[C@H](O)[C@@H](O)[C@@H]2O)cc1	1540 µM	2	83.2	
613 µM	> 1520 µM	64.8 µM	CC(=O)c1ccc(O[C@@H]2O[C@H](COC(=O)/C=C/c3ccc(F)cc3)[C@@H](O)[C@H](O)[C@H]2O)cc1	917 µM	1.5	>23.4	

More lines, now with the values behind:

SMILES	IC50 [3]	IC50 [4]	IC50 [5]	CC50 [1]	Selectivity Index [2]	Selectivity Index [6]	Selectivity Index [7]
CC(=O)c1ccc(OC(=O)c2cccs2)cc1	3530 µM	> 3710 µM	> 927 µM	> 3710 µM	>1		
COc1cc(/C=C/C(=O)OC[C@H]2O[C@@H](Oc3ccc(C(C)=O)cc3)[C@H](O)[C@@H](O)[C@@H]2O)cc(OC)c1OC	526 µM	> 1480 µM	5.8 µM	925 µM	1.8	160.3	
COc1cc(O[C@@H]2O[C@H](CO)[C@@H](O)[C@H](O)[C@H]2O)cc(O)c1C(C)=O	> 2370 µM	> 2370 µM	92 µM	> 2370 µM		>25.7	
CC(=O)c1ccc(O[C@@H]2O[C@H](CO[C@@H]3OC[C@@H](O)[C@H](O)[C@H]3O)[C@@H](O)[C@H](O)[C@H]2O)cc1	> 2600 µM	> 2600 µM	38.5 µM	> 2600 µM		>67.5	
CC(=O)c1ccc(O[C@@H]2O[C@H](COC(=O)/C=C/c3ccc(O)c(O)c3)[C@@H](O)[C@H](O)[C@H]2O)cc1	291 µM	1280 µM	8 µM	1580 µM	5.4	>197.9	1.2
COc1cc(C(=O)Oc2ccc(C(C)=O)cc2)cc(OC)c1OC	648 µM	> 2580 µM	88.8 µM	1210 µM	1.9	13.6	
CC(=O)c1ccc(O[C@@H]2O[C@H](COC(=O)/C=C/c3ccccc3)[C@@H](O)[C@H](O)[C@H]2O)cc1	> 1740 µM	> 1740 µM	67.3 µM	> 1740 µM		>25.9	
COc1ccc(/C=C/C(=O)OC[C@H]2O[C@@H](Oc3ccc(C(C)=O)cc3)[C@H](O)[C@@H](O)[C@@H]2O)cc1OC	696 µM	> 1450 µM	8.8 µM	> 1450 µM	>2.1	>165	
CC(=O)c1ccc(O[C@@H]2O[C@H](COC(=O)/C=C/c3ccc4c(c3)OCO4)[C@@H](O)[C@H](O)[C@H]2O)cc1	698 µM	> 1470 µM	74.4 µM	> 1470 µM	>2.1	>19.8	
CC(=O)c1ccc(O[C@@H]2O[C@H](COC(=O)/C=C/c3cccc(F)c3)[C@@H](O)[C@H](O)[C@H]2O)cc1	434 µM	> 1450 µM	22.8 µM	828 µM	1.9	36.5	
CC(=O)c1ccc(O[C@@H]2O[C@H](COC(=O)/C=C/c3ccc(F)c(F)c3)[C@@H](O)[C@H](O)[C@H]2O)cc1	515 µM	> 1770 µM	22.5 µM	874 µM	1.7	38.9	
CC(=O)c1ccc(O[C@@H]2O[C@H](COC(=O)c3ccccc3)[C@@H](O)[C@H](O)[C@H]2O)cc1	678 µM	> 1680 µM	93.7 µM	1050 µM	1.5	11.2	
COc1cc(C(=O)OC[C@H]2O[C@@H](Oc3ccc(C(C)=O)cc3)[C@H](O)[C@@H](O)[C@@H]2O)cc(OC)c1OC	1350 µM	> 1490 µM	20.7 µM	890 µM		42.9	
CC(=O)c1ccc(O[C@@H]2O[C@H](COC(=O)c3cccnc3)[C@@H](O)[C@H](O)[C@H]2O)cc1	1430 µM	> 1650 µM	103 µM	> 1650 µM	>1.2	>16	
CC(=O)c1ccc(O[C@@H]2O[C@H](COC(=O)c3ccco3)[C@@H](O)[C@H](O)[C@H]2O)cc1	571 µM	> 1880 µM	101 µM	1170 µM	2.1	11.7	
CC(=O)c1ccc(O[C@@H]2O[C@H](COC(=O)c3cccs3)[C@@H](O)[C@H](O)[C@H]2O)cc1	301 µM	> 1710 µM	31.4 µM	1570 µM	5.2	50.1	
CC(=O)c1ccc(O)cc1 [4-HYDROXYACETOPHENONE]	786 µM	1850 µM	306 µM	2390 µM	3	7.8	1.3
CC(=O)c1ccc(O[C@@H]2O[C@H](CO)[C@@H](O)[C@H](O)[C@H]2O)cc1 [PICEIN]	> 3950 µM	> 3950 µM	228 µM	> 3950 µM		>17.3	
C[C@H](Cn1cnc2c(N)ncnc21)OCP(=O)(O)O [TENOFOVIR ANHYDROUS]	> 1740 µM	> 1740 µM	2.9 µM	> 1740 µM		>600.8	
